Experimental findings from PubChem BioAssay AID256 (DTP/NCI, 2004) are described below.

The structures appear in SMILES notation. Where “and” joins values, the source holds several entries; their conditions need not be identical. Equal entries are not always repeated. Inconclusive results and toxic doses are left out. Positions of bridges follow the written chain, without caps; N, C: chain ends. Residues, ends and D or L forms follow the SMILES beside them. Chains are numbered I, II in the order given. *: point of attachment. Bz = O=C(c1ccccc1)*

For the assay, the system named is CD2F1 mice, L1210 leukemia ip, survival T/C. The experiment in a line: NCI In Vivo Anticancer Drug Screen. Data for tumor model L1210 Leukemia (intraperitoneal) in CD2F1 (CDF1) mice. Conditions: endpoint: mean survival time, higher = longer survival. Put shortly: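 Tumor-bearing mice (transplanted tumor) were split into treated and vehicle control groups, and the measured endpoint of each treated group was divided by that of its vehicle controls.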

[1] abbreviates: dose: 100.0 mg/kg/injection, schedule: Q01DX001 (ip), vehicle: saline with Tween-80.
Setting [2] is: dose: 100.0 mg/kg/injection, schedule: Q01DX009 (ip), vehicle: saline with Tween-80.
Setting [3] is: dose: 200.0 mg/kg/injection, schedule: Q01DX001 (ip), vehicle: saline with Tween-80.
[4] abbreviates: dose: 200.0 mg/kg/injection, schedule: Q01DX009 (ip), vehicle: saline with Tween-80.
Where [5] appears, read: dose: 400.0 mg/kg/injection, schedule: Q01DX001 (ip), vehicle: saline with Tween-80.
The mark [6] stands for this setting: dose: 100.0 mg/kg/injection, schedule: Q04DX003 (ip), vehicle: saline with Tween-80.
[7] abbreviates: dose: 200.0 mg/kg/injection, schedule: Q04DX003 (ip), vehicle: saline with Tween-80.
[8] abbreviates: dose: 400.0 mg/kg/injection, schedule: Q04DX003 (ip), vehicle: saline with Tween-80.
Setting [9] is: dose: 100.0 mg/kg/injection, schedule: Q04DX002 (ip), vehicle: saline with Tween-80.
The mark [10] stands for this setting: dose: 200.0 mg/kg/injection, schedule: Q04DX002 (ip), vehicle: saline with Tween-80.

As to `COC(=O)C(CSCSCc1ccccc1)NC(=O)C(CSCc1ccccc1)NC(=O)CCNC(=O)OCc1ccccc1` (stereo unspecified), the T/C by setting is: (dose: 25.0 mg/kg/injection, schedule: Q01DX009 (ip), vehicle: Klucel (hydroxypropylcellulose) (HPC)) 96 % of control; (dose: 50.0 mg/kg/injection, schedule: Q01DX009 (ip), vehicle: Klucel (hydroxypropylcellulose) (HPC)) 93 % of control; (dose: 100.0 mg/kg/injection, schedule: Q01DX009 (ip), vehicle: Klucel (hydroxypropylcellulose) (HPC)) 88 % of control; (dose: 200.0 mg/kg/injection, schedule: Q01DX009 (ip), vehicle: Klucel (hydroxypropylcellulose) (HPC)) 93 % of control; (dose: 400.0 mg/kg/injection, schedule: Q01DX009 (ip), vehicle: Klucel (hydroxypropylcellulose) (HPC)) 90 % of control.

On to `O=NN(CCCl)C(=S)NC1CCCCC1`, for which the T/C runs as follows: (dose: 6.25 mg/kg/injection, schedule: Q01DX001 (ip), vehicle: other) 104 % of control; (dose: 12.5 mg/kg/injection, schedule: Q01DX001 (ip), vehicle: other) 211 % of control; (dose: 25.0 mg/kg/injection, schedule: Q01DX001 (ip), vehicle: other) 246 % of control and 403 % of control; (dose: 50.0 mg/kg/injection, schedule: Q01DX001 (ip), vehicle: other) 295 % of control and 523 % of control.

For the compound `COC(=O)C(CSSCC(NC(=O)CNC(=O)c1ccccc1)C(=O)OC)NC(=O)CNC(=O)c1ccccc1` (stereo not drawn) (I: Bz-Gly-Cys-OMe / II: Bz-Gly-Cys-OMe; disulfide I:2-II:2; configuration not given here), the T/C is, setting by setting: under setting [1], 108 % of control; under setting [2], 87 % of control; under setting [3], 102 % of control; under setting [4], 87 % of control; under setting [5], 97 % of control.

Regarding `CSc1ccc(N=C=C(c2ccccc2)c2ccccc2)cc1`, the T/C (dose: 6.25 mg/kg/injection, schedule: Q01DX009 (ip), vehicle: saline with Tween-80) is 96 % of control; the T/C (dose: 12.5 mg/kg/injection, schedule: Q01DX009 (ip), vehicle: saline with Tween-80) was 94 % of control; the T/C (dose: 25.0 mg/kg/injection, schedule: Q01DX009 (ip), vehicle: saline with Tween-80) is 94 % of control; the T/C under setting [6] is 93 % of control; the T/C under setting [7] is 95 % of control; the T/C under setting [8] was 97 % of control.

Regarding `CC1SCCS1`, the T/C runs as follows: under setting [1], 95 % of control; under setting [3], 105 % of control; under setting [5], 100 % of control.

For `CN=NC(C)C`, the T/C under setting [4] is 113 % of control.

On to `c1ccc2c(P(c3cccc4ccccc34)c3cccc4ccccc34)cccc2c1`, for which the T/C was 100 % of control (dose: 100.0 mg/kg/injection, schedule: Q01DX001 (ip), vehicle: saline); 93 % of control (dose: 200.0 mg/kg/injection, schedule: Q01DX001 (ip), vehicle: saline); 89 % of control (dose: 400.0 mg/kg/injection, schedule: Q01DX001 (ip), vehicle: saline).

Consider `CC(=O)Nc1ccc(C)cc1C`, for which the T/C runs as follows: (dose: 100.0 mg/kg/injection, schedule: Q04DX003 (ip), vehicle: Klucel (hydroxypropylcellulose) (HPC)) 94 % of control; (dose: 200.0 mg/kg/injection, schedule: Q04DX003 (ip), vehicle: Klucel (hydroxypropylcellulose) (HPC)) 103 % of control; (dose: 400.0 mg/kg/injection, schedule: Q04DX003 (ip), vehicle: Klucel (hydroxypropylcellulose) (HPC)) 97 % of control.

With `O=C(CCC1CC=CCC1)c1ccccc1` (stereo unspecified), the T/C reads like this: (dose: 25.0 mg/kg/injection, schedule: Q04DX002 (ip), vehicle: saline with Tween-80) 111 % of control; (dose: 50.0 mg/kg/injection, schedule: Q04DX002 (ip), vehicle: saline with Tween-80) 96 % of control; under setting [9], 90 % of control; under setting [10], 93 % of control.

On to `CCOC(=O)C1CC1C#N` (stereo unspecified), for which the T/C was 102 % of control under setting [6], 98 % of control under setting [7] and 97 % of control under setting [8].

On to `COc1cc([C@@H]2c3cc4c(c(O)c3C[C@H]3COC(=O)[C@@H]32)OCO4)cc(OC)c1OC`, for which the T/C reads like this: (dose: 10.0 mg/kg/injection, schedule: Q04DX003 (ip), vehicle: saline) 100 % of control; (dose: 20.0 mg/kg/injection, schedule: Q04DX003 (ip), vehicle: saline) 108 % of control; (dose: 40.0 mg/kg/injection, schedule: Q04DX003 (ip), vehicle: saline) 105 % of control; (dose: 80.0 mg/kg/injection, schedule: Q04DX003 (ip), vehicle: saline) 121 % of control; (dose: 125.0 micrograms/kg/injection, schedule: Q01DX009 (ip), vehicle: saline) 100 % of control; (dose: 250.0 micrograms/kg/injection, schedule: Q01DX009 (ip), vehicle: saline) 108 % of control. For the same compound, the T/C by setting is: (dose: 500.0 micrograms/kg/injection, schedule: Q01DX009 (ip), vehicle: saline) 110 % of control; (dose: 2000.0 micrograms/kg/injection, schedule: Q01DX009 (ip), vehicle: saline) 124 % of control; (dose: 4000.0 micrograms/kg/injection, schedule: Q01DX009 (ip), vehicle: saline) 114 % of control.

Take `C=CCNC(=S)NCCO`: the T/C reads like this: (dose: 50.0 mg/kg/injection, schedule: Q01DX009 (ip), vehicle: saline with Tween-80) 97 % of control; (dose: 50.0 mg/kg/injection, schedule: Q04DX003 (ip), vehicle: saline with Tween-80) 111 % of control; under setting [2], 100 % of control; under setting [6], 103 % of control; under setting [4], 94 % of control; under setting [7], 103 % of control.

As for `CN(C)N=Nc1c(-c2cccs2)n[nH]c1C(F)(F)F`, the T/C reads like this: (dose: 75.0 mg/kg/injection, schedule: Q01DX001 (ip), vehicle: other) 103 % of control; (dose: 150.0 mg/kg/injection, schedule: Q01DX001 (ip), vehicle: other) 103 % of control; (dose: 300.0 mg/kg/injection, schedule: Q01DX001 (ip), vehicle: other) 105 % of control.

Regarding `COc1c(C)c2c(c(OC(C)=O)c1CC(=O)C(C)(O)CCC(=O)O)C(=O)OC2` (stereo unspecified), the T/C under setting [9] is 103 % of control; the T/C under setting [10] was 96 % of control; the T/C (dose: 400.0 mg/kg/injection, schedule: Q04DX002 (ip), vehicle: saline with Tween-80) was 112 % of control.

In the case of `COC(=O)CC1(C(=O)OC)Nc2ccc(Br)cc2C(=O)O1` (stereo unspecified), the T/C under setting [1] is 96 % of control, the T/C under setting [3] was 96 % of control and the T/C under setting [5] is 94 % of control.

As for `CCCC1CC[N-]CC1.CCCC1CC[N-]CC1.[Br][Pt+2]([Br])([Br])[Br]`, the T/C runs as follows: (dose: 6.25 mg/kg/injection, schedule: Q01DX009 (ip), vehicle: water) 94 % of control; (dose: 12.5 mg/kg/injection, schedule: Q01DX009 (ip), vehicle: water) 96 % of control; (dose: 25.0 mg/kg/injection, schedule: Q01DX009 (ip), vehicle: water) 97 % of control; (dose: 50.0 mg/kg/injection, schedule: Q01DX009 (ip), vehicle: water) 91 % of control; (dose: 100.0 mg/kg/injection, schedule: Q04DX003 (ip), vehicle: water) 90 % of control.
